Consider 17 compounds from ChEMBL document CHEMBL1138245, “Discovery of N1-(6-chloroimidazo[2,1-b][1,3]thiazole-5-sulfonyl)tryptamine as a potent, selective, and orally active 5-HT(6) receptor agonist” (J Med Chem, 2007).

SMILES strings stand for the structures.

The target in assay [1] is T1, 5-hydroxytryptamine receptor 6 (Homo sapiens, UniProt P50406). The assay is described as follows: Displacement of [3H]LSD from human 5HT6 receptor expressed in HeLa cells. The class given is cell-based. (In general: In a radioligand displacement assay an active substance lowers the binding of a labelled ligand.)
Assay [2] has as its target T1, 5-hydroxytryptamine receptor 6. The assay can be described thus: Agonist activity at human 5HT6 receptor expressed in HeLa cells assessed as cAMP production. The class given is functional, cell-based. A general note: cAMP levels reflect the balance of adenylyl cyclase and phosphodiesterase activity.
The target is the same in assay [3]. The assay can be described thus: Antagonist activity at human 5HT6 receptor expressed in HeLa cells assessed as cAMP production. It is filed as functional, cell-based.

T1 sequence (P50406 whole entry): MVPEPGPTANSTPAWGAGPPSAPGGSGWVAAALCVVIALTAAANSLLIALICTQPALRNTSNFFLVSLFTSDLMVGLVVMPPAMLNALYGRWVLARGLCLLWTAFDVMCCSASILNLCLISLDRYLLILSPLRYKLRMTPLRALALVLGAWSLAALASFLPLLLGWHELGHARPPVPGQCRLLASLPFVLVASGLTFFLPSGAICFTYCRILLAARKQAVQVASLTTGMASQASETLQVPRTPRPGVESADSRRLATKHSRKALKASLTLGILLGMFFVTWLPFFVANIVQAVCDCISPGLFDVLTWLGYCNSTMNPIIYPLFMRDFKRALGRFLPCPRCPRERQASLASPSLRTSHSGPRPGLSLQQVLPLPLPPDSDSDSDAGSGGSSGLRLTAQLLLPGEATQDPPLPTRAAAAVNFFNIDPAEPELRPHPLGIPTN

By Ki is commonly meant a dissociation constant, usually derived from enzyme kinetics or from competition with a known ligand. What is called EC50 is the concentration needed to bring the measured effect to its halfway point. Usually Emax stands for the size of the effect at its maximum, as opposed to the concentration needed. In turn, `NCCc1cn(S(=O)(=O)c2ccc(Cl)cc2)c2ccccc12` showed a Ki in assay [1] of 10 nM. In assay [2], the EC50 was found to be 174 nM and the Emax was found to be 93.5%.

In the case of `NCCc1cn(S(=O)(=O)c2ccc(F)cc2)c2ccccc12`, the affinity in assay [1], expressed as Ki, was 21 nM.

Broadly, the IC50 is the concentration needed to halve the response being measured. In assay [1], `CN1C=C(S(=O)(=O)n2cc(CCN)c3ccccc32)SC1N` (configuration not stated) yielded a Ki of 10 nM. In assay [3], the IC50 was found to be 9.6 nM and the Imax worked out at 83%.

In turn, `NCCc1cn(S(=O)(=O)c2ccc(Br)s2)c2ccccc12` displayed a Ki in assay [1] of 7 nM. In assay [2], the EC50 is 54 nM and the Emax was found to be 72%.

In the case of `NCCc1cn(S(=O)(=O)c2cccc(Cl)c2)c2ccccc12`, the affinity in assay [1], expressed as Ki, was 6 nM. Besides, in assay [2], the EC50 is 108 nM and the Emax turned out to be 100%.

In turn, `Cc1ccc(S(=O)(=O)n2cc(CCN)c3ccccc32)cc1` displayed a Ki in assay [1] of 8 nM. For the same compound, in assay [2], the EC50 is 191 nM and the Emax amounted to 87.5%.

In assay [1], `NCCc1cn(S(=O)(=O)c2ccc(Cl)s2)c2ccccc12` had a Ki of 6 nM. Besides, in assay [2], the EC50 was 181 nM and the Emax stood at 100%.

On to `CN(C)CCn1cc(S(=O)(=O)c2cccc(F)c2)c2ccccc21`, for which the Ki in assay [1] was determined as 10.3 nM.

`NCCc1cn(S(=O)(=O)c2ccc(Cl)c(Cl)c2)c2ccccc12` came in with a Ki in assay [1] of 30 nM.

`COc1ccc(S(=O)(=O)n2cc(CCN)c3ccccc32)cc1OC` returned a Ki in assay [1] of 7 nM. In addition, in assay [3], the IC50 came to 17.5 nM and the Imax amounted to 80.5%.

Compound `NCCc1cn(S(=O)(=O)c2ccccc2Br)c2ccccc12` displayed a Ki in assay [1] of 11 nM. Further, in assay [2], the concentration for a half-maximal effect (EC50) is 148 nM and the Emax stood at 97.5%.

On to `NCCc1cn(S(=O)(=O)c2ccc(I)cc2)c2ccccc12`, for which affinity in assay [1] was put at a Ki of 14 nM.

Turning to `NCCc1cn(S(=O)(=O)c2ccccc2I)c2ccccc12`, in assay [1], affinity was put at a Ki of 16 nM.

Consider `NCCc1cn(S(=O)(=O)c2ccccc2)c2ccccc12`, for which the affinity in assay [1], expressed as Ki, was 10 nM. Also, in assay [2], the EC50 is 73 nM and the Emax amounted to 92%.

Regarding `NCCc1cn(S(=O)(=O)c2ccc(N)cc2)c2ccccc12`, the Ki in assay [1] is 1 nM. In addition, in assay [2], the EC50 was determined as 91 nM and the maximal effect (Emax) worked out at 73%.

For `NCCc1cn(S(=O)(=O)c2cc(Cl)c(Cl)s2)c2ccccc12`, the Ki in assay [1] is 31 nM.

In turn, `COc1ccc(S(=O)(=O)n2cc(CCN)c3ccccc32)cc1` returned a Ki in assay [1] of 47 nM. Against the preceding compound, the Ki is about 1.5-fold higher.
